Active and inactive are the calls of the source. No cut-off for these calls is given here.
What was measured:
BV-2 [1] = experiment: Antineuroinflammatory activity in mouse BV2 cells assessed as inhibition of LPS-induced nitric oxide production at 20 uM after 24 hrs by Griess reagent method; assay type: functional; settings: for inhibition at 20 µM: BV-2, 24 h
BV-2 [2] = experiment: Antineuroinflammatory activity in mouse BV2 cells assessed as inhibition of LPS-induced nitric oxide production after 24 hrs by Griess reagent method; assay type: functional, cell-based; settings: for IC50: BV-2, 24 h
[3] = Cytotoxicity against mouse BV2 cells by MTT assay; assay type: cell-based, BV-2; settings: read-out: INH
[4] = target: T1, Nitric oxide synthase, inducible (Mus musculus) (UniProt P29477); experiment: Inhibition of iNOS in LPS-stimulated mouse BV2 cells at 25 to 100 uM after 24 hrs by Griess reagent method; assay type: cell-based; settings: BV-2
T1 sequence (whole entry): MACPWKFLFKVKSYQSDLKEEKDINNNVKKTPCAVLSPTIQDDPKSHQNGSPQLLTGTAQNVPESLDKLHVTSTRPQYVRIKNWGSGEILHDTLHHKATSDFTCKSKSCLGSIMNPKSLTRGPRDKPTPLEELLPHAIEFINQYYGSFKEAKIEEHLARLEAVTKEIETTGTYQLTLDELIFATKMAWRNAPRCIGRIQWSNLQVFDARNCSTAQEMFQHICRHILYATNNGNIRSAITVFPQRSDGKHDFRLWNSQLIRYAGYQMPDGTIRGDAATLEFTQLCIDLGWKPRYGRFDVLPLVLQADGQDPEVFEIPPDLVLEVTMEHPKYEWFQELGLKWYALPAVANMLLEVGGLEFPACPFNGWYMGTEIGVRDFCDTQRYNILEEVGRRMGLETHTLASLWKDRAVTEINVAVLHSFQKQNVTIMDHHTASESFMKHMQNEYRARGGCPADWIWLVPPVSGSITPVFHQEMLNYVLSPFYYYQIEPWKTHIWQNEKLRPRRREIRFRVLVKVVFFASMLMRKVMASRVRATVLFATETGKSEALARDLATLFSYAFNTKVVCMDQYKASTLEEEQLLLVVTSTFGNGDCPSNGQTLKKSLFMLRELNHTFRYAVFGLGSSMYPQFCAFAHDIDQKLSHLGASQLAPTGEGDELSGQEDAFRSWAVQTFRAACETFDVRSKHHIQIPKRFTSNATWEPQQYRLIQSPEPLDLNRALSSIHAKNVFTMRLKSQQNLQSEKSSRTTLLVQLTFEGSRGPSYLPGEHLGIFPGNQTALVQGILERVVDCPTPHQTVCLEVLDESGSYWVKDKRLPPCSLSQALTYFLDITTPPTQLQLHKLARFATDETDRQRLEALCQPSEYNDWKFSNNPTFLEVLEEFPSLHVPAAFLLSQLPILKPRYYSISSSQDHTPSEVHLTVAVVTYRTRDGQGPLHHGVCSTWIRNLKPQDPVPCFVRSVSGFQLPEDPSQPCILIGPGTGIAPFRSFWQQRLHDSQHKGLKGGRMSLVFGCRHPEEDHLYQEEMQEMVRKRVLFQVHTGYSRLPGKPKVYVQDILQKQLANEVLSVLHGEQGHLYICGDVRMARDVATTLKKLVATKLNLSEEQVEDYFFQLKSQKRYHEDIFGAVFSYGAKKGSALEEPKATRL

BV-2 [5] = experiment: Inhibition of LPS-induced iNOS expression in mouse BV2 cells at 5 to 20 uM after 6 hrs by Western blot analysis; assay type: functional, cell-based
[6] = Effect on nitric oxide radical scavenging activity in sodium nitroprusside solution assessed as nitric oxide release after 15 mins by Griess reagent method; assay type: physicochemical; settings: 0.25 h

Compound	inhibition at 20 µM (BV-2 [1]) [%]	IC50 (BV-2 [2]) [µM]	inhibition (BV-2 [1])	other results
C=CCC1=CC(OC)(/C(C)=C/c2ccc3c(c2)OCO3)C(OC)=CC1=O (stereo not given) [FUTOQUINOL]	55.3	16.8		inhibition (BV-2 [2]): Dose-dependent effect
C=CCC1=C[C@]2(OC)C(=CC1=O)O[C@H](c1ccc3c(c1)OCO3)[C@H]2C [DENUDATIN A]				cytotoxicity [3]: 23.2%
C=CCC1=C[C@]2(OC)[C@H](C)[C@@H](c3ccc(OC)c(OC)c3)[C@H](C1=O)[C@@H]2OC(C)=O			inactive	
C=CCC1=CC2=C(OC)[C@H](C1=O)[C@]2(C)[C@H](O)c1ccc2c(c1)OCO2 [PIPERKADSIN C]	60.8	14.6		Activity [4]: Active; Activity (BV-2 [5]): inactive; inhibition (BV-2 [2]): Dose-dependent effect; Activity [6]: Not Active
C=CCc1ccc(OC)c(OC(C)C(OC(C)=O)c2ccc(OC)c(OC)c2)c1OC (stereo not given)	27.2	33.2		
C=CCC1=C[C@@]2(OC)C(=CC1=O)O[C@H](c1ccc(OC)c(OC)c1)[C@H]2C [KADSURENONE]			inactive	cytotoxicity [3]: 21.3%
CNC(=N)NCCC[C@H](N)C(=O)O [TILARGININE]	55.3	16.8		
C=CC[C@]12C(=O)C=C(OC)[C@]3(OC)[C@@H]1[C@]3(C)[C@H]2c1ccc2c(c1)OCO2			inactive	
C=CCC1=CC(OC)(/C(C)=C/c2ccc(OC)c(OC)c2)C(OC)=CC1=O (stereo not given) [WALLICHININE]	18.5	45.6		
